{
  "source": "patent US20170252346A1",
  "about": "“PHARMACEUTICAL COMPOSITION FOR THE TREATMENT OF ACUTE TOOTH OR JAW PAIN” (SANOFI-AVENTIS DEUTSCHLAND GMBH, priority 2014, published 2017)",
  "system": "patients with post-operative dental pain",
  "assay": "Single-center, randomized, two-stage, parallel-group double-blind clinical study of single-dose efficacy and safety in post-operative dental pain",
  "type": "in vivo, human",
  "conditions": "ibuprofen 400 mg, caffeine 100 mg",
  "experimental": "Clinical trials are performed in patients using the tablets produced according to example 1 and using the following study design:\nSecondary goal: Evaluation of the efficacy and safety of multiple doses of the fixed combination compared with ibuprofen alone over a post-operative time period of 5 days (study stage 2).\nMale and female patients between the ages of 18 and 55 years, scheduled for the extraction of 3 to 4 unsound wisdom teeth, with at least 2 extracted molars were recruited; the baseline of dental pain intensity must be at least moderate on a verbal evaluation scale and at least 5 on a numerical evaluation scale ranging from 0 to 10.\nFollowing surgery, one tablet every 6-8 hours for 5 days has been administered.\nThe time-weighted sum of pain relief (PAR) and the difference in pain intensity (PID) from 0 to 8 hours (SPRID0-8H)\nSecondary Endpoint • The time-weighted sum of PAR and PID from 0 to 2 hours (SPRID0-2H) • Duration of pain relief • Time to significant pain relief\nThe pain intensity (PI) was evaluated in a diary before administration and at 0.25, 0.5, 0.75, 1, 1.5, 2, 3, 4, 5, 6, 7 and 8 hours after the first dose of the study medication using an 11-point numerical rating scale (NPRS) from 0=“no pain” to 10=“worst possible pain”.\nThe pain relief (PAR) beginning from pain onset was evaluated in a patient diary using a 5-point rating scale (VRS) (0=no pain relief; 1=a little pain relief; 2=some pain relief; 3=much pain relief; 4=complete pain relief) at the same time points as for the PI evaluation.\nAs soon as a patient needed an emergency medication or a second dose of the medication within less than 8 hours, PI and PAR were evaluated before the emergency medication or second dose was administered.\nThe time-weighted sum of pain relief (PAR) and the pain intensity difference (PID) relative to baseline between 0 and 8 hours is determined as follows:\nPID=PI at baseline−PI at the specific time point (here, higher PID values represent greater benefit for the patient).\nHigher values of the SPRID0-8 h likewise indicate greater benefit for the patient.",
  "key": {"[1]": {"conditions": "Kaplan-Meyer analysis, single dose"}},
  "data": [
    {"smiles": "CC(C)Cc1ccc(C(C)C(=O)O)cc1", "note": "(racemic) [Ibuprofen, (+/−) 2-(p-isobutylphenyl)-propionic acid]", "values": [
      {"measurement": "Mean time to obtain relief (time to significant/meaningful pain relief)", "setting": "[1]", "value": 2.5, "unit": "h"},
      {"measurement": "Median duration of action", "setting": "[1]", "value": 7.1, "unit": "h"},
      {"measurement": "Adjusted Mean SPRID0-2h value", "setting": "time-weighted sum of PAR and PID 0 to 2 hours after single dose", "value": 6.990},
      {"measurement": "Adjusted Mean SPRID0-8h value", "setting": "time-weighted sum of pain relief (PAR) and pain intensity difference (PID) 0 to 8 hours after single dose, study stage 1", "value": 40.165}
    ]}
  ]
}
